Assay results: patent publication US20250352658A1, “COMBINATION THERAPY USING ANTIBODY-DRUG CONJUGATES” (ADC THERAPEUTICS SA, priority 2021, published 2025)

Key:
TMD8 cells = test: CellTiterGlo viability assay, SG3199 and MMAE combination, TMD8; format: cell-based; details: 24 hours
Method: We tested a combination of the warheads alone used in CD19xADC (PBD SG3199) and CD79bxADC (monomethyl auristatin E (MMAE)). This was performed essentially as per Example 1, in TMD8 cells. Cells were seeded at a density of 50,000 cells/mL. […]
Cells were incubated for 24 hours and then viability was measured with CellTiterGlo assay.
For analysis of the results, data were first blank corrected (average of blank of the 3 replicates was subtracted from each data value). For GraphPad analysis, each replicate was normalized over the untreated cells (average of the 3 replicates). Data were analysed by GraphPad Prism to generate a dose response curve with Log drug concentration on X-axis and cell viability (%) on Y-axis. For CalcuSyn analysis, the average of the 3 replicates was corrected over the untreated cells.

WSU-DLCL2 xenograft = test: In vivo efficacy, WSU-DLCL2 xenograft model; set-up: species or system mice
Method: Female severe combined immunodeficient mice (Fox Chase SCID®, CB17/Icr-Prkdc^scid/IcrIcoCrl, Charles River) were nine weeks old with a body weight (BW) range of 17.3 to 24.1 g on Day 1 of the study.
On the day of implant, 1×10^7 WSU-DLCL2 cells (0.1 mL suspension) were subcutaneously implanted into the right flank of each test animal and tumors were monitored as their volumes approached the target range.
Ten days after tumor implantation, designated as Day 1 of the study, the animals were sorted into groups (n=10) with individual tumor volumes of 88 to 126 mm^3 and group mean tumor volumes of 109 to 111 mm^3.
(§1) All vehicle and ADC doses were administered i.v. via tail vein injection once on Day 1 (qd×1). The dosing volume was 0.2 mL per 20 grams of body weight (10 mL/kg) and was scaled to the body weight of each individual animal.
(§2) Tumors were measured using calipers twice per week, and each animal was euthanized when its tumor reached the endpoint volume of 1000 mm^3 or at the end of the study, whichever came first. The study ended on Day 62.
Tumors were measured in two dimensions using calipers, and volume was calculated using the formula
Tumor Volume (mm^3)=w^2×l/2, where w=width and l=length, in mm, of the tumor.
Tumor weight may be estimated with the assumption that 1 mg is equivalent to 1 mm^3 of tumor volume.

Ramos xenograft = test: In vivo efficacy, Ramos xenograft model; set-up: species or system mice
Method: A further in vivo study was conducted, similar to Example 2 but using a Ramos xenograft model.
Female severe combined immunodeficient mice (Fox Chase SCID®, CB17/Icr-Prkdc^scid/IcrIcoCrl, Charles River) were eight weeks old with a body weight (BW) range of 15.6 to 22.9 g on Day 1 of the study.
as §1, with “On the day of implant, 1×10^7 Ramos cells (0.1 mL suspension) were subcutaneously implanted into the right flank of each test animal and tumors were monitored as their volumes approached the target range. All” for “All”
Fourteen days after tumor implantation, designated as Day 1 of the study, the animals were sorted into groups (n=10) with individual tumor volumes of 108 to 144 mm^3 and group mean tumor volumes of 130 to 134 mm^3.
as §2

[1] = CD19xADC 0.25 mg/kg i.v. once on Day 1, n=10
[2] = CD19xADC 0.5 mg/kg i.v. once on Day 1, n=10
[3] = CD19xADC 0.3 mg/kg i.v. once on Day 1, n=10
[4] = CD19xADC 0.6 mg/kg i.v. once on Day 1, n=10

Row | Molecule | Fa (fraction affected) (TMD8 cells; SG3199 0.06 pM alone (MMAE 0)) | Fa (fraction affected) (TMD8 cells; SG3199 0.23 pM alone (MMAE 0)) | Fa (fraction affected) (TMD8 cells; SG3199 0.90 pM alone (MMAE 0)) | Fa (fraction affected) (TMD8 cells; SG3199 3.6 pM alone (MMAE 0)) | Fa (fraction affected) (TMD8 cells; SG3199 14.4 pM alone (MMAE 0)) | Fa (fraction affected) (TMD8 cells; SG3199 57.5 pM alone (MMAE 0)) | Fa (fraction affected) (TMD8 cells; SG3199 230 pM alone (MMAE 0)) | CR (complete response) (WSU-DLCL2 xenograft; [1]) | PR (partial response) (WSU-DLCL2 xenograft; [1]) | TFS (tumour free survivor) (WSU-DLCL2 xenograft; [1]) | CR (complete response) (WSU-DLCL2 xenograft; [2]) | PR (partial response) (WSU-DLCL2 xenograft; [2]) | TFS (tumour free survivor) (WSU-DLCL2 xenograft; [2]) | CR (complete response) (Ramos xenograft; [3]) | PR (partial response) (Ramos xenograft; [3]) | TFS (tumour free survivor) (Ramos xenograft; [3]) | CR (complete response) (Ramos xenograft; [4]) | PR (partial response) (Ramos xenograft; [4]) | TFS (tumour free survivor) (Ramos xenograft; [4])
1 | COc1cc2c(cc1OCCCCCOc1cc3c(cc1OC)C(=O)N1C=C(C)C[C@H]1C=N3)N=C[C@@H]1CC(C)=CN1C2=O [SG3199, reference compound] | 0.12 | 0.16 | 0.15 | 0.15 | 0.19 | 0.23 | 0.46 |  |  |  |  |  |  |  |  |  |  |  | 
2 | CD19xADC: anti-CD19 ADC; Loncastuximab tesirine is the CD19xADC used |  |  |  |  |  |  |  | 0 | 3 | 0 | 5 | 2 | 3 | 0 | 0 | 0 | 7 | 0 | 7
